# According to patent publication US7998976B2, “Certain chemical entities, compositions and methods” (Cytokinetics, Inc., priority 2008, dated 2011):
# Tested on: skeletal sarcomere (skeletal myosin with actin, tropomyosin, and troponin complex)
# Test: Screen of ATP hydrolysis rate of myosin with calcium-regulated actin filament (actin/tropomyosin/troponin), PK/LDH/NADH coupled enzyme system
# Type: biochemical
# Details: screen conducted at pCa=6.5; unit not given
# Protocol: For example, test compounds can be assayed in a highly parallel fashion by using multiwell plates by placing the compounds either individually in wells or testing them in mixtures. Assay components including the target protein complex, coupling enzymes and substrates, and ATP can then be added to the wells and the absorbance or fluorescence of each well of the plate can be measured with a plate reader.
# In some embodiments, the method uses a 384 well plate format and a 25 μL reaction volume. A pyruvate kinase/lactate dehydrogenase coupled enzyme system (Huang T G and Hackney D D. (1994) J Biol Chem 269(23):16493-501) can be used to measure the rate of ATP hydrolysis in each Well. As will be appreciated by those in the art, the assay components are added in buffers and reagents. The incubation periods can be optimized to give adequate detection signals over the background. The assay can be done in real time giving the kinetics of ATP hydrolysis which increases the signal to noise ratio of the assay.
# Actin was purified by first preparing an ether powder of cardiac muscle (Zot H G and Potter J D. (1981) Preparative Biochemistry 11:381-395) as described below. Subsequently, actin was cycled between the filamentous and soluble state through rounds of centrifugation and dialysis (Spudich J A and Watt S. (1971) J. Biol. Chem. 246:4866-4871). It was stored in the filamentous state at 4° C.
# Tropomyosin was extracted from the ether powder and separated from the other proteins based on pH dependent precipitations followed by successive ammonium sulfate cuts at 53% and 65% (Smillie L B. (1981) Methods Enzymol 85 Pt B:234-41). The troponins were isolated as an intact complex of TnC, TnT, and TnI. Ether powder is extracted in a high salt buffer. Successive ammonium sulfate cuts of 30% and 45% were done; the precipitate was solubilized by dialysis into a low salt buffer and then further purified on a DEAE Toyopearl column with a 25-350 mM KCl gradient.
# Just prior to screening, the actin, tropomyosin, and troponin complex are mixed together in the desired ratio (e.g., 7:1:1) to achieve maximal calcium regulation of the actin filament. The screen is conducted at a pCa=6.5. This calcium concentration is in the physiological range during muscle contraction.
# To measure the generation of ADP during the reaction, a pyruvate kinase/lactate dehydrogenase/NADH coupled enzyme system (PK/LDH) is added to the actin. The myosin is kept separately. The plates are read in real time so that kinetic curves are obtained. These compounds are in DMSO and were already spotted onto the bottoms of 384 well plates at 10 to 40 μg/ml final concentration.
# • 1. Obtain ˜1000 g skeletal muscle, such as rabbit skeletal muscle. • 2. Grind twice; extract with 2 L solution A for 15 min while stirring; add 4 L cold H2O, filter through gauze; dilute with cold H2O to ionic strength of 0.04, (about 10-fold); let settle for 3 h; collect precipitate at 7,000 rpm in GSA rotor for 15 min. • 3. Disperse pellet in 220 ml solution B; dialyze overnight against 6 L solution C; slowly add ˜400 ml equal volume cold distilled H2O; stir for 30 min; centrifuge at 10,000 rpm for 10 min in GSA rotor. • 4. Centrifuge supernatant at 19,000 rpm for 1 h. • 5. Dilute supernatant to ionic strength of 0.04 (˜8-fold); let myosin settle overnight; collect about 5-6 L fluffy myosin precipitate by centrifuging at 10,000 rpm for 10 min in GSA rotor. • 6. Resuspend pellet in minimal volume of solution G; dialyze overnight against 2 L solution D; centrifuge at 19,000 rpm for 2 h, in cellulose nitrate tubes; puncture tubes and separate myosin from fat and insoluble pellet. • 7. Dilute supernatant to 5-10 mg/ml and dialyze against solution E extensively, load onto DEAE-sephadex column. • 8. […]
row,AC1.4 Median,Compound
1,2.366,"3-(ethylpropyl)-5-ethynylimidazo[5,4-b]pyridin-2-ol"
2,43.299,"3-(ethylpropyl)-5-methylimidazo[5,4-b]pyridin-2-ol"
3,2.611,"5-(dimethylamino)-3-(ethylpropyl)imidazo[5,4-b]pyridin-2-ol"
4,3.836,"3-(ethylpropyl)-5-vinylimidazo[5,4-b]pyridin-2-ol"
5,8.050,"CCC(CC)n1c(O)nc2ccc(Br)nc21 [5-bromo-3-(ethylpropyl)imidazo[5,4-b]pyridin-2-ol]"
6,21.134,"CCC(CC)n1c(O)nc2ccc(Cl)nc21 [5-chloro-3-(ethylpropyl)imidazo[5,4-b]pyridin-2-ol]"
7,0.840,"C/C=C\c1ccc2nc(O)n(C(CC)CC)c2n1 [5-((1Z)prop-1-enyl)-3-(ethylpropyl)imidazo[5,4-b]pyridin-2-ol]"
